Results from patent US8999956B2, “N-[(het)arylalkyl)] pyrazole(thio)carboxamides and their heterosubstituted analogues” (Bayer Intellectual Property GmbH, priority 2010, dated 2015).
Where two headings read alike, the source gives them in different places.

Assays:
Leptosphaeria nodorum = assay: In vivo preventive test on Leptosphaeria nodorum (wheat); conditions: 500 ppm of active ingredient, evaluated 7-9 days after inoculation
Summary of the method: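 Compound formulated in N,N-dimethylacetamide with alkylaryl polyglycol ether emulsifier and diluted with water. Young wheat plants were sprayed at the stated application rate, then inoculated one day later with an aqueous spore suspension of L. nodorum.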

Alternaria solani = assay: In vivo preventive test on Alternaria solani (tomato); conditions: 500 ppm of active ingredient, evaluated 7 days after inoculation
Summary of the method: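 Young tomato plants sprayed preventively with compound in DMF/alkylarylpolyglycolether emulsion diluted in water to the stated rate. Inoculation with aqueous Alternaria solani spore suspension one day after treatment.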

[1] = tested on: aflatoxines produced by Aspergillus parasiticus; assay: microbe, parasite or virus in culture; assay type: cell-based
Botrytis cinerea = assay: In vivo preventive test on Botrytis cinerea (beans)
Summary of the method: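 Young bean plants sprayed preventively with compound in acetone/dimethylacetamide/emulsifier diluted in water; after drying, each leaf inoculated with 2 agar pieces bearing Botrytis cinerea. Kept dark at 20° C, 100% humidity; lesion size scored at 2 days as % efficacy (0% = untreated, 100% = no disease).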

Venturia inaequalis = assay: In vivo preventive test on Venturia inaequalis (apple scab); conditions: 100 ppm of active ingredient, evaluated 10 days after inoculation
Summary of the method: (§1)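 Young plants sprayed preventively at the stated application rate with compound dissolved in acetone/N,N-dimethylacetamide plus alkylaryl polyglycol ether emulsifier and diluted with water to the desired concentration.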

Aspergillus parasiticus = assay: microbe, parasite or virus in culture; assay type: cell-based
Fusarium graminearum = conditions: in vivo
Septoria tritici = assay: In vivo preventive test on Septoria tritici (wheat); conditions: 500 ppm of active ingredient, evaluated 21 days after inoculation
Summary of the method: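 Compound formulated in N,N-dimethylacetamide with alkylaryl polyglycol ether emulsifier and diluted in water to the stated rate. Young wheat plants sprayed preventively; after the deposit dried, they were inoculated with a Septoria tritici spore suspension.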

Pyrenophora teres = assay: In vivo preventive test on Pyrenophora teres (barley); conditions: 500 ppm of active ingredient, evaluated 7-9 days after inoculation
Summary of the method: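 Compound formulated in N,N-dimethylformamide with alkylaryl polyglycol ether emulsifier and diluted in water, then sprayed on young barley plants at the stated application rate. Plants inoculated one day later with aqueous Pyrenophora teres spore suspension, testing preventive protection.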

Uromyces appendiculatus = assay: In vivo preventive test on Uromyces appendiculatus (beans); conditions: 100 ppm of active ingredient, evaluated 10 days after inoculation
Summary of the method: as §1

[2] = tested on: Blumeria graminis fsp. hordei; assay: In vivo preventive test on Blumeria graminis (barley); conditions: 500 ppm of active ingredient, evaluated 7 days after inoculation
Summary of the method: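 Active compound taken up in N,N-dimethylacetamide with alkylaryl polyglycol ether emulsifier, then diluted in water to the desired concentration. Young barley plants sprayed at the stated application rate; once the coating had dried, plants were dusted with Blumeria graminis f. sp. hordei spores.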

Sphaerotheca fuliginea = assay: In vivo preventive test on Sphaerotheca fuliginea (cucumber); conditions: 500 ppm of active ingredient, evaluated 7 days after inoculation
Summary of the method: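 Young cucumber plants sprayed with compound (in DMF with alkylarylpolyglycolether emulsifier, diluted in water) at the stated application rate. Inoculated one day later with aqueous Sphaerotheca fuliginea spore suspension. Plants then held in greenhouse at approximately 23° C and approximately 70% relative humidity.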

Puccinia triticina = assay: In vivo preventive test on Puccinia triticina (wheat); conditions: Table K, 500 ppm of active ingredient, evaluated 8 days after inoculation
[3] = log P by HPLC on reversed-phase column (EEC Directive 79/831 Annex V.A8); assay type: physicochemical
Description: In table 1, the log P values were determined in accordance with EEC Directive 79/831 Annex V.A8 by HPLC (High Performance Liquid Chromatography) on a reversed-phase column (C18), using the method described below: Temperature: 40° C.; […]

Phakopsora pachyrhizi = assay: In vivo protective test on Phakopsora pachyrhizi (soybeans); conditions: Table N, 250 ppm of active ingredient, evaluated 11 days after inoculation
[4] = Table L, 500 ppm of active ingredient, lesion size 2 days after inoculation

**Q.** For `Cn1nc(C(F)F)c(C(=O)N(C2CC2)C2CCCCC2Cc2ccccc2)c1F` (mixture of isomers) [Example 243], which Efficacy (Leptosphaeria nodorum) is on record?
**A.** 100%

**Q.** What about the Efficacy (Alternaria solani) of the same compound?
**A.** 100%

**Q.** And the “% Inhibition of Aflatoxin at 50 μM” value [1]?
**A.** 100%

**Q.** And the Efficacy (Botrytis cinerea; [4])?
**A.** 90%

**Q.** What about the Efficacy (Venturia inaequalis) of the same compound?
**A.** 100%

**Q.** What about the “% Inhibition of fungal growth at 50 μM” value (Aspergillus parasiticus) of the same compound?
**A.** 100%

**Q.** What about the Efficacy (Fusarium graminearum) of the same compound?
**A.** 100%

**Q.** And the Efficacy (Septoria tritici)?
**A.** 100%

**Q.** What about the Efficacy (Pyrenophora teres) of the same compound?
**A.** 100%

**Q.** What about the Efficacy (Uromyces appendiculatus) of the same compound?
**A.** 98%

**Q.** What about the Efficacy [2] of the same compound?
**A.** 100%

**Q.** And the Efficacy (Sphaerotheca fuliginea)?
**A.** 100%

**Q.** And the Efficacy (Puccinia triticina)?
**A.** 100%

**Q.** With `CC(CCc1ccc(Cl)c(Cl)c1)N(C(=O)c1c(C(F)F)nn(C)c1F)C1CC1` (racemic) [Example 129] as the compound, how does the logP [3] read?
**A.** 4.44

**Q.** And the Efficacy (Leptosphaeria nodorum)?
**A.** 100%

**Q.** What about the Efficacy (Alternaria solani) of the same compound?
**A.** 100%

**Q.** And the “% Inhibition of Aflatoxin at 50 μM” value [1]?
**A.** 100%

**Q.** And the Efficacy (Venturia inaequalis)?
**A.** 100%

**Q.** What about the “% Inhibition of fungal growth at 50 μM” value (Aspergillus parasiticus) of the same compound?
**A.** 100%

**Q.** What about the Efficacy (Fusarium graminearum) of the same compound?
**A.** 100%

**Q.** And the Efficacy (Septoria tritici)?
**A.** 80%

**Q.** And the Efficacy (Pyrenophora teres)?
**A.** 100%

**Q.** What about the Efficacy (Uromyces appendiculatus) of the same compound?
**A.** 99%

**Q.** And the Efficacy [2]?
**A.** 100%

**Q.** And the Efficacy (Sphaerotheca fuliginea)?
**A.** 100%

**Q.** And the Efficacy (Puccinia triticina)?
**A.** 70%

**Q.** With `CC(COc1ccc(Cl)cc1Cl)N(C(=O)c1c(C(F)F)nn(C)c1F)C1CC1` (stereo not shown) [Example 187] as the compound, how does the logP [3] read?
**A.** 4.16

**Q.** What about the Efficacy (Leptosphaeria nodorum) of the same compound?
**A.** 90%

**Q.** And the “% Inhibition of Aflatoxin at 50 μM” value [1]?
**A.** 100%

**Q.** What about the Efficacy (Venturia inaequalis) of the same compound?
**A.** 100%

**Q.** What about the “% Inhibition of fungal growth at 50 μM” value (Aspergillus parasiticus) of the same compound?
**A.** 100%

**Q.** What about the Efficacy (Fusarium graminearum) of the same compound?
**A.** 100%

**Q.** What about the Efficacy (Septoria tritici) of the same compound?
**A.** 100%

**Q.** And the Efficacy (Pyrenophora teres)?
**A.** 100%

**Q.** And the Efficacy (Uromyces appendiculatus)?
**A.** 95%

**Q.** What about the Efficacy [2] of the same compound?
**A.** 100%

**Q.** And the Efficacy (Sphaerotheca fuliginea)?
**A.** 100%

**Q.** And the Efficacy (Puccinia triticina)?
**A.** 95%

**Q.** For `CC(CCc1ccccc1C(F)(F)F)N(C(=O)c1c(C(F)F)nn(C)c1F)C1CC1` (stereo not shown) [Example 221], which logP [3] is on record?
**A.** 4.09

**Q.** And the Efficacy (Alternaria solani)?
**A.** 100%

**Q.** What about the “% Inhibition of Aflatoxin at 50 μM” value [1] of the same compound?
**A.** 100%

**Q.** And the Efficacy (Venturia inaequalis)?
**A.** 100%

**Q.** What about the “% Inhibition of fungal growth at 50 μM” value (Aspergillus parasiticus) of the same compound?
**A.** 100%

**Q.** What about the Efficacy (Fusarium graminearum) of the same compound?
**A.** 100%

**Q.** And the Efficacy (Septoria tritici)?
**A.** 100%

**Q.** What about the Efficacy (Phakopsora pachyrhizi) of the same compound?
**A.** 80%

**Q.** And the Efficacy (Pyrenophora teres)?
**A.** 95%

**Q.** What about the Efficacy (Uromyces appendiculatus) of the same compound?
**A.** 100%

**Q.** What about the Efficacy [2] of the same compound?
**A.** 100%

**Q.** What about the Efficacy (Sphaerotheca fuliginea) of the same compound?
**A.** 100%

**Q.** What about the Efficacy (Puccinia triticina) of the same compound?
**A.** 100%

**Q.** Which results are given for `Cn1nc(C(F)F)c(C(=O)N(C2CC2)C2CCCCC2Oc2ccccc2)c1F` (stereo not shown) [Example 244]?
**A.** logP [3]: 3.89; Efficacy (Leptosphaeria nodorum): 95%; Efficacy (Alternaria solani): 100%; % Inhibition of Aflatoxin at 50 μM ([1]; 50 µM): 99%; Efficacy (Botrytis cinerea; 500 ppm of active ingredient, lesion size 2 days after inoculation): at least 85%; Efficacy (Botrytis cinerea; Table L4, dose 500 ppm, comparison with des-fluoro analogue): 88%; Efficacy (Botrytis cinerea; [4]): 88%; Efficacy (Venturia inaequalis): 100%; % Inhibition of fungal growth at 50 μM (Aspergillus parasiticus; 50 µM): 82%; Efficacy (Fusarium graminearum): 100%; Efficacy (Septoria tritici): 100%; Efficacy (Phakopsora pachyrhizi): 98%; Efficacy (Pyrenophora teres): 95%; Efficacy (Uromyces appendiculatus): 100%; Efficacy [2]: 100%; Efficacy (Sphaerotheca fuliginea): 100%; Efficacy (Puccinia triticina): 100%

**Q.** Which results are given for `Cn1nc(C(F)F)c(C(=O)N(C[Si](C)(C)Cc2ccccc2)C2CC2)c1F` [Example 288]?
**A.** logP [3]: 4.03; Efficacy (Leptosphaeria nodorum): 100%; Efficacy (Alternaria solani): 100%; % Inhibition of Aflatoxin at 50 μM [1]: 100%; Efficacy (Botrytis cinerea; [4]): 100%; Efficacy (Venturia inaequalis): 100%; % Inhibition of fungal growth at 50 μM (Aspergillus parasiticus): 99%; Efficacy (Fusarium graminearum): 100%; Efficacy (Septoria tritici): 90%; Efficacy (Pyrenophora teres): 100%; Efficacy (Uromyces appendiculatus): 100%; Efficacy [2]: 100%; Efficacy (Sphaerotheca fuliginea): 94%; Efficacy (Puccinia triticina): 95%
